Laboratory results reported in PMC7943581, “Tumor-penetrating therapy for β5 integrin-rich pancreas cancer” (Nature Communications, 2021).

Assays:
[1] = system: NRP-1 expression in PC3 cells; experiment: Cell surface NRP-1 expression in PC3 cells with TGF-β or LY2157299; assay type: cell-based, human; conditions: Fig 4F
Procedure: (§1) Spheroids were generated by incubating 5 × 10^4 cells per well in 24-well low binding plates for 3 days. For co-culture studies, spheroids prepared with a mixture of 5 × 10^4 CAFs and 10^4 tumor cells per well were used. In some cases, spheroids were maintained in CM for 2 days in the presence or absence of 10 μM dimethyl sulfoxide (DMSO) or a specific TGF-β inhibitor LY2157299 (PeproTech, Princeton, NJ). The CM was prepared from the supernatant of 3-day-old cultures of CAFs or tumor cells, which was centrifuged at 2000×g for 40 min to remove cellular debris. Some spheroids were incubated in the presence of 30 ng/ml human TGF-β (eBioscience, San Diego, CA) for 48 h.
(§2) Cells were trypsinized into a single cell suspension before staining. The primary antibodies were mouse anti-human αvβ3 (1 μg/sample) (Clone LM609 Cat no. MAB1976, EMD Millipore, Billerica, MA), mouse anti-human αvβ5 (1 μg) (Clone P1F6, Cat no. MAB1961 EMD Millipore), rat anti-mouse αv (1 μg) (Clone RMV7, Cat no. 50-104-13, eBioscience), rabbit anti-human NRP-1 b1b2[20] (1 μg), and Alexa 647 or BV421-conjugated mouse anti-human/mouse αvβ5 (1:50) (clone ALULA Cat no. 565836 or 743669, BD Biosciences, San Jose, CA). The primary antibodies were detected with corresponding secondary antibodies conjugated with Alexa 488, 594, or 647 (1:250) (Invitrogen). The cells were analyzed with an LSR Fortessa System (BD Biosciences), and the data were analyzed with a FlowJo software. Cells were gated on single cells and then on live cells by excluding DAPI or PI positive cells. In tumor cell/CAF co-culture experiments, mCherry high cells were gated in order to define the mCherry-labeled CAFs. For iRGD-AgNP uptake quantification, specific uptake was defined by gating cells positive for either Alexa 647 or 488, which were attached to the AgNPs.
(§3) Spheroids were dissociated into a single cell suspension as described in the previous section. The cells were subjected to flow cytometry to analyze the protein expression of αvβ3 and αvβ5 integrins and NRP-1. The flow cytometry was performed as described in a previous section. Some cells were also subjected to qPCR to analyze mRNA expression of αv (ITGav) and ITGb5 integrin subunits, TGF-β, and ZEB1. Total RNA was extracted using Trizol Reagent (Invitrogen), and cDNA was generated using a SuperScript III First-strand Synthesis System (Invitrogen). qPCR was performed using SYBR green in an ABI 7900 HT (Applied Biosystems, Foster City, CA). The results were normalized against β-actin and cyclophilin A. The list of primers can be found in Supplementary Table 1.

[2] = system: αvβ5 integrin expression in PC3 cells; experiment: Cell surface αvβ5 integrin expression in PC3 cells with TGF-β or LY2157299; assay type: cell-based, human; conditions: for avb5 MFI: Fig 4E
Procedure: as §1, §2, §3

[3] = system: PDAC in KPC mice; experiment: Long-term treatment of KPC mice, gemcitabine with or without iRGD; assay type: in vivo, mouse
Procedure: One hundred micrograms of FAM-labeled peptide dissolved in 100 μl of PBS was intravenously injected into tumor mice, and allowed to circulate for 15, 30, or 60 min. The mice were perfused through the heart under deep anesthesia using PBS containing 1% BSA, and tissues were harvested, fixed with 4% PFA overnight, washed three times with PBS, and then transferred to 30% sucrose prior to embedding in optimal cutting temperature compound (OCT). In some cases, the FAM signal was enhanced with an anti-fluorescein antibody (1:200) (Cat no. A-889, Invitrogen) followed by a secondary anti-rabbit Alexa 488 antibody (1:200) (Invitrogen). Other antibodies used for immunofluorescence were anti-FAP (1:100) (Cat. no. ABT-11, Millipore Sigma, Temecula, CA), Cy3-anti-αSMA (1:100) (Clone 1A4, Cat. no. C6198, Millipore Sigma), anti-ER-TR7 (1:100) (Cat. no. SC-73355, Santa Cruz Biotechnology, Dallas, TX), rabbit anti-mouse β5 integrin (1:200) (Cat. no. 15459, GeneTex, Irvine, CA), rabbit monoclonal anti-Ki67 (1:200) (Clone SP6, Cat. no. ab16667, Abcam), mouse monoclonal anti-αSMA (0.034 μg/ml) (Clone 1A4, Cat. no. ab7817, Abcam), and rat anti-mouse CD31(1:100) (Clone MEC 13.3, Cat. no. 550274, BD Biosciences) antibodies. The sections were also stained with 4′,6-diamidino-2-phenylindole (DAPI) (1:1000) (Invitrogen). The stained tissue sections were examined with a Zeiss confocal microscope (Zeiss, Dublin, CA). To quantify FAM-iRGD homing (green) and its colocalization with CAFs (red), confocal micrographs were converted to RGB color mode and analyzed with an ImageJ software for the intensity and areas positive for one or both colors. Six to eight random fields per tumor were chosen and repeated in three tumor mice for each time point. For intraductal spreading of FAM-iRGD, cancerous ducts with or without FAM-iRGD signal were manually counted per field of view in confocal micrographs. Six random fields were chosen for each of the three tumors at both time points.
Immunohistochemistry was performed as described previously. Briefly, paraffin-embedded sections were cleared, rehydrated, and subjected to steam heat-mediated antigen retrieval using low or high pH buffer (eBioscience). Endogenous peroxidase activity was blocked with BloxALL (Vector, Burlingame, CA). Blocking was performed with 10% donkey or goat serum plus 5% BSA. The sections were treated with a rabbit anti-αvβ5 polyclonal antibody (1:200) (Cat. no. bs-1356R, BIOSS, Woburn, MA) or a rabbit polyclonal anti-cleaved caspase 3 antibody (1:250) (Cat. no. 9579S, Cell Signaling) at 4 °C overnight and incubated with ImmPRESS (IHC-P, rabbit, MP-7401) secondary antibody reagent (Vector, Burlingame, CA). The sections were counter stained with hematoxylin and eosin (H&E) and viewed with a Nikon Eclipse E-600 bright field microscope.
KPC mice with PDAC of ~4–5 mm confirmed by palpation and ultrasound imaging were randomized into respective treatment cohorts: iRGD alone (100 μg/IV injection, n = 10); gemcitabine (TSZ Chem, Waltham, MA) (100 mg/kg/IP injection, n = 18); iRGD + gemcitabine (n = 16). The treatment was given every 4 days until the mice met the criteria for sacrifice defined by the IACUC. Survival curves were drawn and analyzed using GraphPad (Prism8) software. In another study, the KPC mice were randomized into gemcitabine (100 mg/kg/IP injection) + nab-paclitaxel composed of mouse albumin (30 mg/kg/IP injection) or iRGD (100 μg/IV injection) + gemcitabine + nab-paclitaxel. […]

[4] = system: mPCFAA0779 CAFs and LM-PmC cells; experiment: Peptide entry in 2D co-cultures (confocal microscopy); assay type: cell-based, mouse; conditions: 2D co-culture, 20 μM peptide, 4 h, 37 °C
Procedure: A mixture of tumor cells and CAFs at a 2:1 ratio was grown on collagen I-coated coverslips (BD Biosciences) overnight or until they became confluent. The cells were incubated with 20 μM of FAM-labeled peptides for 4 h at 37 °C. The cells were briefly rinsed with warm PBS, fixed in warm 4% paraformaldehyde, and stained with DAPI (1:1000). The cells were visualized with a Fluoview 500 confocal microscope (Olympus America, Center Valley, PA).

[5] = system: KPC mouse tumors; experiment: Modified Miles assay, Evans Blue with iRGD co-injection; assay type: in vivo; conditions: IV 100 μl 1% Evans blue then 100 μg iRGD or PBS, 40 min, OD 600 nm, Fig S14
Procedure: The experiments were performed as described earlier[20],[38]. In brief, for Miles assays, anesthetized mice were warmed to 37 °C for 10 min, followed by an IV bolus of 100 μl of 1% Evans blue dye and then 100 μg of iRGD. After 40 min, the mice under deep anesthesia were perfused through the heart with PBS containing 1% BSA and the organs were harvested for dye extraction using […]. OD 600 nm of the supernatant was measured. For dextran delivery, mice were intravenously injected with 0.3 mg of iRGD followed by 0.3 mg of 10 kDa Alexa 647-conjugated fixable dextran (Invitrogen). After 1 h of circulation, mice were perfused with PBS containing 1% BSA and the organs were harvested and processed for immunofluorescence.

Cc1cccc(-c2nn3c(c2-c2ccnc4ccc(C(N)=O)cc24)CCC3)n1 [LY2157299]
NRP1 MFI ([1]; PC3, CAFCM+LY, Exp1): 4550
NRP1 MFI ([1]; PC3, CAFCM+LY, Exp2): 2287
NRP1 MFI ([1]; PC3, CAFCM+LY, Exp3): 2840
NRP1 MFI ([1]; PC3, NM+TGFb+LY, Exp1): 11021
NRP1 MFI ([1]; PC3, NM+TGFb+LY, Exp2): 3760
NRP1 MFI ([1]; PC3, NM+TGFb+LY, Exp3): 6318
effect on CAF CM-induced αvβ5 expression in PC3 cells ([2]; 10 μM, 2 days in CM): completely blocked
avb5 MFI ([2]; PC3, CAFCM+LY, Exp1): 4907
avb5 MFI ([2]; PC3, CAFCM+LY, Exp2): 3245
avb5 MFI ([2]; PC3, CAFCM+LY, Exp3): 2633
avb5 MFI ([2]; PC3, CAFCM+LY, Exp4): 2959
avb5 MFI ([2]; PC3, NM+TGFb+LY, Exp1): 4584
avb5 MFI ([2]; PC3, NM+TGFb+LY, Exp2): 3278
avb5 MFI ([2]; PC3, NM+TGFb+LY, Exp3): 2186
avb5 MFI ([2]; PC3, NM+TGFb+LY, Exp4): 2450

CRGDK/RGPD/EC [iRGD, iRGD tumor-penetrating peptide (CRGDK/RGPD/EC)]
therapeutic benefit vs historical survival of untreated KPC mice ([3]; iRGD alone 100 μg IV every 4 days, n = 10, Fig S15): did not provide any therapeutic benefit

FAM-CRGDC
entry of FAM-labeled peptide into cells [4]: to a much lesser extent than FAM-iRGD

CRGEKGPDC [FAM-iRGE, variant peptide (…) with the RGD motif changed to RGE, FAM-labeled]
entry of FAM-labeled peptide into cells [4]: minimal affinity to the cells

Cc1cc(-c2ccc(/N=N/c3ccc4c(S(=O)(=O)O)cc(S(=O)(=O)O)c(N)c4c3O)c(C)c2)ccc1/N=N/c1ccc2c(S(=O)(=O)O)cc(S(=O)(=O)O)c(N)c2c1O [PBS + EB, Evans Blue]
Evans Blue in KPC mouse tumors normalized against wet tissue weight ([5]; Exp 1): 0.004 µg/mL/mg
Evans Blue in KPC mouse tumors normalized against wet tissue weight ([5]; Exp 2): 0.07 µg/mL/mg
Evans Blue in KPC mouse tumors normalized against wet tissue weight ([5]; Exp 3): -0.074 µg/mL/mg

Nc1ccn([C@@H]2O[C@H](CO)[C@@H](O)C2(F)F)c(=O)n1 [Gem, gemcitabine]
liver metastases (median) ([3]; KPC mice, necropsy of random samples, not significant): 26
lung metastases (median) ([3]; KPC mice, necropsy of random samples, p = 0.03): 9
survival at 180 days ([3]; KPC mice, treatment every 4 days): 0%
median survival ([3]; KPC mice, treatment every 4 days, n = 16 combination, n = 18 gemcitabine): 71 days

TGF-β
NRP1 MFI ([1]; PC3, NM+TGFb+DMSO, Exp1): 12904
NRP1 MFI ([1]; PC3, NM+TGFb+DMSO, Exp2): 3924
NRP1 MFI ([1]; PC3, NM+TGFb+DMSO, Exp3): 4995
avb5 MFI ([2]; PC3, NM+TGFb+DMSO, Exp1): 7502
avb5 MFI ([2]; PC3, NM+TGFb+DMSO, Exp2): 9515
avb5 MFI ([2]; PC3, NM+TGFb+DMSO, Exp3): 6238
avb5 MFI ([2]; PC3, NM+TGFb+DMSO, Exp4): 5783
effect of exogenous TGF-β on αvβ5 expression ([2]; cultured PC3 cells, 30 ng/ml, 48 h): reproduced the CAF CM-induced increase in αvβ5 expression
